# Assay results as given in US20120308662A1, “PARTICULATE PREPARATION AND METHOD FOR PRODUCING THE SAME” (NITTO DENKO CORPORATION, priority 2011, published 2012).
# Where a name gives a salt, the structure may show the parent alone.
# Columns and labels:
# [1] = Dissolution test, flow-through cell method of the Japanese Pharmacopoeia; type: physicochemical; conditions: Tamsulosin hydrochloride
# Experimental: According to the flow-through cell method disclosed in the Japanese Pharmacopoeia, the test was carried out using a dissolution medium which was one of 1st fluid for dissolution test (pH 1.2), 2nd fluid for dissolution test (pH 6.8), and a disodium hydrogen phosphate-citric acid buffer solution at pH 7.2 (obtained by dissolving 7.1 g of dehydrated disodium hydrogen phosphate in water and adjusting the total volume to be 1000 mL, and adjusting the pH to 7.2 by adding, to the obtained solution, a solution obtained by dissolving 5.3 g of citric acid monohydrate in water and adjusting the total volume to be 1000 mL).
# Swinnex Filter Holder 25 mm (from Nippon Millipore) was used for a cell. In order to prevent flowing out of the particulate formulations, a support screen (25 mm stainless, from Nippon Millipore), Durapore Membrane Filters (PVDF, Hydrophilic, 0.45 μm, 25 mm, from Nippon Millipore), and a silicon gasket 25 mm (Swinnex Filter Holder from Nippon Millipore) were successively installed. Masterflex L/S (Model 7524-50 from Cole Parmer Instrument COMPANY) was used as a pump and a dissolution medium was transported at 2.5 mL/min. Besides that, the test was carried out according to the flow-through cell method disclosed in the Japanese Pharmacopeia. An eluate was sampled 10, 30, 60 minutes after starting the test and the dissolution amount of the drug in the eluate was measured by high performance liquid chromatography (HPLC) and the dissolution rate to the initial drug content was calculated.
# [2] = Measurement of average particle diameter of particulate formulation (automatic particle image analyzer); type: physicochemical; conditions: particle diameter of 50% by volume; 20000 or more particles
# Experimental: Herein, the “average particle diameter” means the particle diameter of 50% by volume of the entire particles and may be measured by using an “automatic particle image analyzer” (a particle image analyzer is an apparatus for measuring the particle diameter from images of photographed particles) and a “laser diffraction particle size distribution analyzer” (or a “laser diffraction/scattering particle size distribution analyzer”).
# The average particle diameter was measured using 20000 or more particles with an automatic particle image analyzer (Morphologi (registered trade name)-G3 from Malvern Instruments).
smiles,measurement,setting,value
"CCOc1ccccc1OCCN[C@H](C)Cc1ccc(OC)c(S(N)(=O)=O)c1 [Comparative Example 9, Tamsulosin hydrochloride]",Elution rate ratio between pH 6.8 and pH 1.2,[1]; 60 min,2.4
same,"Drug dissolution under a condition of pH 1.2, in words",[1]; pH 1.2,high drug dissolution rate
same,Pharmaceutical elution rate 60 minutes after starting the test(%),"[1]; pH 1.2, 60 min",36.7%
same,"Drug dissolution under a condition of pH 6.8, in words",[1]; pH 6.8,high drug dissolution rate
same,Pharmaceutical elution rate 60 minutes after starting the test(%),"[1]; pH 6.8, 60 min",88.4%
same,Average particle diameter of particulate formulations,[2],2.7 μm
